Experimental findings from patent US20040248904A1, “New piperidinylamino-thieno[2,3-d] pyrimidine compounds” (priority 2003, published 2004) are described below.

Read-outs that look alike come from different tables or passages of the source.

In data set [1] the target is 5-HT2B (Homo sapiens, UniProt P41595). The data set can be described thus: 5-HT2B receptor affinity (K1, Table 1). The class given is binding. The protocol:
(§1) Compounds of the invention were made according to the respective syntheses noted above, and their activity and selectivity was determined. […] The compounds accordingly are expected to be useful as 5-HT2B receptor modulators, e.g., in the treatment of a wide variety of clinical conditions which are characterized by serotonin excess or absence, e.g., serotoninergic hypofunction or hyperfunction. Such conditions include those noted above, and conditions associated with vascular disorders, e.g., angina, migraine, pulmonary hypertension and systemic hypertension.

For data set [2], the system named is Rat Fundus. The data set can be described thus: Functional (Antagonist Rat Fundus). It counts as cell-based. The protocol:
as §1

Data set [3] can be described thus: Rat pharmacokinetics (% F, T1/2). Particulars: in vivo; for bioavailability: oral, read-out: PK (% F) rat.

Sequence of 5-HT2B (P41595 whole entry, species assumed): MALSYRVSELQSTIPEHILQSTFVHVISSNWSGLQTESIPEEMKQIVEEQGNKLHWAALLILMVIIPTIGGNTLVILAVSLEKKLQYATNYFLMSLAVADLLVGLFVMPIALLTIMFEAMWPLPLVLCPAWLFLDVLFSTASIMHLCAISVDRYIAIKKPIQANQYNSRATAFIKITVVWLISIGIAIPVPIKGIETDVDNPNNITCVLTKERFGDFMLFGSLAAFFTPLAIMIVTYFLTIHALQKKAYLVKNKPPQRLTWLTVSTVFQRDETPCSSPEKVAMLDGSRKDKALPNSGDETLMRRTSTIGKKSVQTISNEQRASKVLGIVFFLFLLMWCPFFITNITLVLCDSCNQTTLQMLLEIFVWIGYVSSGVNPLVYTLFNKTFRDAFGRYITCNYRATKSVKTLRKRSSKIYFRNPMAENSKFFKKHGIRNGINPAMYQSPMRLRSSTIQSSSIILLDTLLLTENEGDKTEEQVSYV

The molecule `Cc1sc2ncnc(NC3CCN(C(C)c4cccc(F)c4)CC3)c2c1C` (stereo not drawn) [Compound 8] displayed a Ki in data set [1] of 4.6 nM.

In data set [1], `Fc1cccc(C(N2CCC(Nc3ncnc4sc5c(c34)CCCC5)CC2)C(F)(F)F)c1` (stereo not drawn) [Compound 24] came in with a Ki of 950 nM.

`CC(c1cc(F)cc(F)c1)N1CCC(Nc2ncnc3sc4c(c23)CCCC4)CC1` (stereo not drawn) [Compound 5] registered a 50% inhibitory concentration (IC50) in data set [2] of 1300 nM. Affinity in data set [1] was put at a Ki of 2.64 nM.

With `CC(C#N)(c1cccc(F)c1)N1CCC(Nc2ncnc3sc4c(c23)CCCC4)CC1` (stereo not drawn) [Compound 21], in data set [1], the affinity, expressed as Ki, was 120 nM. That is a sub-micromolar value.

Consider `CC(C)CC(c1cccc(F)c1)N1CCC(Nc2ncnc3sc4c(c23)CCCC4)CC1` (stereo not drawn) [Compound 20], for which the Ki in data set [1] stood at 84 nM.

In data set [1], `CC(C)Cc1cc2c(NC3CCN(C(C)c4c(F)cccc4F)CC3)ncnc2s1` (stereo not drawn) [Compound 15] came in with a Ki of 20 nM. This Ki is about 4.2-fold lower than that of the molecule before.

`Fc1cccc(CN2CCC(Nc3ncnc4sc5c(c34)CCCC5)CC2)c1` [Compound 4] gave an IC50 in data set [2] of 100 nM. In data set [1], this molecule showed an inhibition constant Ki of 2.3 nM.

With `CC(C)Cc1cc2c(NC3CCN(C(C)c4cccc(F)c4)CC3)ncnc2s1` (stereo not drawn) [Compound 3], the IC50 in data set [2] was found to be 5300 nM. Further, the Ki in data set [1] is 0.97 nM. Also, in data set [3], the bioavailability is 3.9%. The half-life in data set [3] (po, read-out: T1/2 (hr) rat* po (converted)) is 0.45 h.

Take `Cc1sc2ncnc(NC3CCN(CC4CCCCC4)CC3)c2c1C` [Compound 9]: in data set [1], the inhibition constant Ki amounted to 7.8 nM.

With `Fc1cccc(CNCCCNc2ncnc3sc4c(c23)CCCC4)c1` [Compound 13], in data set [1], the Ki worked out at 17 nM.

`CC(C)c1cc2c(NC3CCN(Cc4cc(F)cc(F)c4)CC3)ncnc2s1` [Compound 1] returned an IC50 in data set [2] of 830 nM. In addition, the Ki in data set [1] came out at 0.57 nM. Further, the bioavailability in data set [3] was determined as 9.8%.

`CC(C)Cc1cc2c(NC3CCN(C(C)c4c(F)cc(F)cc4F)CC3)ncnc2s1` (stereo not drawn) [Compound 18]: affinity in data set [1] was put at a Ki of 70 nM.

Turning to `CC(c1cccc(F)c1)N1CCC(Nc2ncnc3sccc23)CC1` (stereo not drawn) [Compound 11], the affinity in data set [1], expressed as Ki, was 14 nM. This Ki is about 5-fold lower than that of the molecule before.

In the case of `CC(c1cccc(F)c1)N1CCC(Nc2ncnc3sc4c(c23)CCCC4)CC1` (stereo not drawn) [Compound 6], the affinity in data set [1] corresponds to a Ki of 4 nM. This Ki lies about 3.5-fold lower than the previous one.

In turn, `CC(C)Cc1cc2c(N3CCC(NCc4cc(F)cc(F)c4)CC3)ncnc2s1` [Compound 26] gave an inhibition constant Ki in data set [1] of 1300 nM.

`CC(c1c(F)cc(F)cc1F)N1CCC(Nc2ncnc3sc4c(c23)CCCC4)CC1` (stereo not drawn) [Compound 19] had an inhibition constant (Ki) in data set [1] of 72 nM.

The molecule `c1ccc(CN2CCC(Nc3ncnc4sc5c(c34)CCCC5)CC2)cc1` [Compound 10] registered a 50% inhibitory concentration (IC50) in data set [2] of 110 nM. The Ki in data set [1] came to 13 nM. In addition, the bioavailability in data set [3] turned out to be 1.5%.

`Fc1cccc(CN2CCC(Nc3ncnc4sc(Cl)cc34)CC2)c1` [Compound 2] had a Ki in data set [1] of 0.79 nM. That is a sub-nanomolar value.

The molecule `Cc1sc2ncnc(NC3CCN(Cc4ccccc4C#N)CC3)c2c1C` [Compound 23] yielded a Ki in data set [1] of 210 nM.

As to `CC(c1cccc(F)c1)N1CCC(C)(Nc2ncnc3sc4c(c23)CCCC4)CC1` (stereo not drawn) [Compound 25], in data set [1], the Ki came out at 1200 nM.

In data set [2], `CC(C)Cc1cc2c(NC3CCN(C(C)c4cc(F)cc(F)c4)CC3)ncnc2s1` (stereo not drawn) [Compound 7] displayed a half-inhibitory concentration (IC50) of 5700 nM. The molecule further registered a Ki in data set [1] of 4.2 nM. The bioavailability in data set [3] amounted to 2.8%.

In data set [2], `Fc1cc(F)cc(CN2CCC(Nc3ncnc4sccc34)CC2)c1` [Compound 14] displayed an IC50 of 1600 nM. Moreover, the Ki in data set [1] is 18 nM. For the same molecule, the half-life in data set [3] (iv, read-out: T1/2 (hr) rat iv (converted)) is 0.3 h.

On to `CC(C)Cc1cc2c(NCCCNC(C)c3cccc(F)c3)ncnc2s1` (stereo not drawn) [Compound 22], for which the affinity in data set [1] corresponds to a Ki of 150 nM. This counts as sub-micromolar.

Turning to `CC(C)(c1cccc(F)c1)N1CCC(Nc2ncnc3sc4c(c23)CCCC4)CC1` [Compound 12], the inhibition constant (Ki) in data set [1] was 15 nM.

As to `CC(c1c(F)cccc1F)N1CCC(Nc2ncnc3sc4c(c23)CCCC4)CC1` (stereo not drawn) [Compound 16], the Ki in data set [1] came to 44 nM.

On to `CC(NCCCNc1ncnc2sc3c(c12)CCCC3)c1cccc(F)c1` (stereo not drawn) [Compound 17], for which, in data set [1], the Ki came out at 52 nM.
